For data set [1], the target named is T1, AR LBD (Homo sapiens, UniProt P10275).
T1 sequence (P10275 1-920): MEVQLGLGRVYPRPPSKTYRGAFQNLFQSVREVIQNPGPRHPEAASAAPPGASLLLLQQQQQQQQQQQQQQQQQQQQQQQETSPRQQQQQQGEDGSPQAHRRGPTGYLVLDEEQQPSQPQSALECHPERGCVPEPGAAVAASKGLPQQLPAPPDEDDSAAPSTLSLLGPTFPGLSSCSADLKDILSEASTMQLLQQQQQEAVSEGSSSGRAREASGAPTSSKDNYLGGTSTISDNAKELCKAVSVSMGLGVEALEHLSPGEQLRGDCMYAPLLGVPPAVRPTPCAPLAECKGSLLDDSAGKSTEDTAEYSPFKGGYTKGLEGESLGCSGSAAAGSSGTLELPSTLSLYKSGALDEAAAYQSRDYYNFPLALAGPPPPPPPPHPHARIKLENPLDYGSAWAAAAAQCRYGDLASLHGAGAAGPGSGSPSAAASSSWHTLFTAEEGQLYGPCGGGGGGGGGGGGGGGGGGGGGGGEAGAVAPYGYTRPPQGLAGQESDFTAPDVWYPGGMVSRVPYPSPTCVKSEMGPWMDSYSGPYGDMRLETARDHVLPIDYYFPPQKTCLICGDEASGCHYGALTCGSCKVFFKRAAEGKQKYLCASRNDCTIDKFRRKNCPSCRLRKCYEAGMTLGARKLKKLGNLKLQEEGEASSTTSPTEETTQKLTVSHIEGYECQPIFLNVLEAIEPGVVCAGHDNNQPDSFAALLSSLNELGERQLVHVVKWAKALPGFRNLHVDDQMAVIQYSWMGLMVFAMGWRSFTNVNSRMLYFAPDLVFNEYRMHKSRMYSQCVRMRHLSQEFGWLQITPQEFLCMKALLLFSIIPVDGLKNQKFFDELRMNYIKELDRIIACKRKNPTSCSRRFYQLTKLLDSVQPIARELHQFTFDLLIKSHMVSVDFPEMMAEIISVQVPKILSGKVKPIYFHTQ
Conditions: cited from earlier work.

In data set [2] the test system is HT1080, HeLa and DU145 cells. The experiment in a line: Colony formation assay, non-PCa and AR-negative PCa cells. The format is cell-based, human. The following applies: 10 μM, 7 days. As for the experimental part:
(§1) Cell Colony Assay: Cells were plated in 24-well plates at a density allowing 6-7 days of exponential growth before confluency. Medium and compound was replaced every 48 hours to minimize the effect of potential compound instability. After 7 days of incubation in the presence of compound, cells were fixed and stained with methylene blue, followed by extraction of the stain with 1% SDS and spectrophotometry at 650 nm. Each assay was run in triplicate and the difference between control and compound-treated wells was determined using Student's t-test.
This Example provides a description of the effect of the selected compounds on the growth of PCa cells. To test the toxicity of the identified AR inhibitors towards cells of different origins, we performed colony formation assays using a single dose of each compound (10 μM) on several PCa (LNCaP, C4-2, CWR22R and DU145) and two non-PCa (HT1080 and HeLa) cell lines (FIG. 2A). […] These compounds were not weaker inhibitors of AR transcriptional activity in CWR22R or C4-2 cells than compounds that inhibited growth of the cells.

Data set [3] can be described thus: Microsomal stability. In kind it is in vitro ADME. The following applies: 1 hour incubation with rat microsomes. As for the experimental part:
Five hit compounds, representing both the ARTIS and ARTIK categories (c6, c11, c17, c52 and c85), were selected for in vivo tests based on all of the previous assays. Compound c5 was rejected due to very low microsomal stability (<5% after 1 hour incubation with rat microsomes). The toxicity of the compounds was evaluated in a dose escalation assay in which male NIH Swiss mice (n=4) received three sequential intraperitoneal (i.p.) injections of each compound delivered in 3 day intervals. The first dose was 20-fold higher than the in vitro IC50 (20×IC50) for the compound in CWR22R cells recalculated based on mouse weight (see Example 1) and the second and third doses were 50×IC50 and 100×IC50, respectively. On the day after the last injection, half of the mice in each group were sacrificed for gross pathology examination and collection of blood for serum biochemistry assays, which include total protein, glucose, bilirubin, and creatinine levels, activity of liver enzymes, and ion concentrations. The remaining mice were sacrificed and evaluated similarly 7 days after the last compound injection. […] A minor decrease in serum glucose concentration (70-80% of control) was observed on the day after the last compound injection in almost all mice, but glucose levels were normal a week later (data not shown). […]

Data set [4] relates to AR-expressing PCa cell lines (LNCaP, C4-2, CWR22R). The experiment in a line: Toxicity to AR-expressing PCa cell lines (colony formation / dose-dependent growth inhibition). In kind it is cell-based, human. As for the experimental part:
as §1
Dose-dependent inhibition of cell growth: Cells were plated at 1×10^3 cells per well in 96-well plates. Compounds were added in a dose range from 1 to 20000 nM in two-fold increments. Each dose was tested in triplicate. Controls were 0.1% DMSO (no effect on cell viability) and 50 μM 9-aminoacridine (complete cell death). Cells were incubated for 6 days and then fixed and stained with methylene blue, followed by extraction of the stain with 1% SDS and spectrophotometry at 650 nm. The assay was run two times and, based on the results, the inhibitory concentration of compound suppressing cell growth by 50% as compared to DMSO (IC50) was calculated by the sigmoid approximation method using CalcuSyn software (Biosoft, Chembridge, UK). Confidence intervals were calculated for each sigmoid.
This Example provides a description of the effect of the selected compounds on the growth of PCa cells. To test the toxicity of the identified AR inhibitors towards cells of different origins, we performed colony formation assays using a single dose of each compound (10 μM) on several PCa (LNCaP, C4-2, CWR22R and DU145) and two non-PCa (HT1080 and HeLa) cell lines (FIG. 2A). […] These compounds were not weaker inhibitors of AR transcriptional activity in CWR22R or C4-2 cells than compounds that inhibited growth of the cells. […]

Data set [5] deals with CWR22R cells. The experiment in a line: Cell cycle distribution by propidium iodide staining. The format is cell-based, human. The method, then:
Analysis of cell cycle distribution was based on staining of DNA content by propidium iodide. 10^5 cells were removed from culture dishes using trypsin, washed with PBS and resuspended in 300 μl 3% BSA in PBS, followed by addition of […] 70% ethanol. Cells were kept at −20° C. for several hours and then stained with 10 μg/ml propidium iodide in the presence of 30 μg/ml RNase A for 2 hrs at 37° C. DNA content was assessed using a FACS Calibur instrument and CellQuest software (Becton Dickinson, Franklin Lakes, N.J.).
To test this possibility, we assessed the cell cycle distribution of CWR22R cells treated with both categories of compounds. […] Therefore, different subsets of compounds inhibiting AR-dependent transcription in androgen-independent PCa cells cause either growth arrest or apoptosis in these cells. Whether a compound causes growth arrest or apoptosis is not determined by the potency of the compound as an inhibitor of AR-dependent transcription (i.e., FIG. 2B).

In data set [6] the test system is PSA levels. The following applies: Phase I clinical trial, castration resistant PCa; cited from earlier work.

Here are results for 3 compounds from patent publication US8835447B2, “Method for treating androgen receptor positive cancers” (priority 2009, dated 2014).

Entries after “also recorded” stand apart in the source; their conditions may differ.

For `CNC(=O)c1ccc(N2C(=S)N(c3ccc(C#N)c(C(F)(F)F)c3)C(=O)C23CCC3)cc1F` [RD162], the “partial agonist activity on AR” value in data set [1] is “not displayed”. Besides, the “binding to the AR LBD” value in data set [1] (non-competitive antagonists) is on record as “bind with high affinity to the AR LBD”.
Take `O=C1N=C(Nc2cccc(Cl)c2Cl)SC1=Cc1ccco1` [c5]: in data set [2], the “growth of / toxicity towards non-PCa cells or AR-negative PCa cells (DU145)” value was “no toxicity”. Also, the “microsomal stability, compound left” value in data set [3] is reported as less than 5%. Also, the “toxicity towards AR-expressing PCa cell lines” value in data set [4] (colony formation, 10 μM, three AR-expressing PCa cell lines) is listed as “different degrees of toxicity; also recorded: suppress growth of all”. In addition, the “degree of toxicity to PCa cells (killing vs reduced growth)” value in data set [4] (dose-dependent toxicity, by day 7) is “reduced growth as compared to untreated control cells, but not obvious cell death”. Further, the “changes in cell cycle distribution” value in data set [5] (increase in G1, decrease in S phase) was “cell cycle arrest”. For the same compound, the “cells with sub-G1 DNA content (apoptotic)” value in data set [5] (propidium iodide FACS) was “did not result in appearance of cells with sub-G1 DNA content”.
On to `CNC(=O)c1ccc(N2C(=S)N(c3ccc(C#N)c(C(F)(F)F)c3)C(=O)C2(C)C)cc1F` [MDV3100], for which, in data set [6], the “PSA levels in patients” value is listed as “demonstrated efficacy in decreasing PSA levels”.
